Conditions in all cases: Mutu-3, dose 50.0 nM, time 48.0 hrs
For experiment [1], the target named is Bromodomain-containing protein 4 (Homo sapiens) (UniProt O60885).
Description: Inhibition of BRD4 in human Mutu-3 cells assessed as decrease in Brd4 association in +48 cp region at 50 nM incubated for 48 hrs by CHIP analysis
Experiment [2] has the same target. The source holds these as a separate data set.
Description: Inhibition of BRD4 in human Mutu-3 cells assessed as decrease in CDK9 association in +295 cp region at 50 nM incubated for 48 hrs by CHIP analysis
For experiment [3] the target is unchanged. This is another data set of the same source.
Description: Inhibition of BRD4 in human Mutu-3 cells assessed as decrease in Cyclin T1 association in -208 cp region at 50 nM incubated for 48 hrs by CHIP analysis
Experiment [4] shares this target. The source holds these as a separate data set.
Description: Inhibition of BRD4 in human Mutu-3 cells assessed as decrease in Brd4 association in -208 cp region at 50 nM incubated for 48 hrs by CHIP analysis
The target is the same in experiment [5]. The source holds these as a separate data set.
Description: Inhibition of BRD4 in human Mutu-3 cells assessed as decrease in CDK9 association in +48 cp region at 50 nM incubated for 48 hrs by CHIP analysis
Experiment [6] shares this target. The source holds these as a separate data set.
Description: Inhibition of BRD4 in human Mutu-3 cells assessed as decrease in Brd4 association in -40 cp region at 50 nM incubated for 48 hrs by CHIP analysis
The target is the same in experiment [7]. This is another data set of the same source.
Description: Inhibition of BRD4 in human Mutu-3 cells assessed as decrease in CDK9 association in -208 cp region at 50 nM incubated for 48 hrs by CHIP analysis
The target is the same in experiment [8]. This is another data set of the same source.
Description: Inhibition of BRD4 in human Mutu-3 cells assessed as decrease in Cyclin T1 association in +48 cp region at 50 nM incubated for 48 hrs by CHIP analysis
Experiment [9] has the same target. The source holds these as a separate data set.
Description: Inhibition of BRD4 in human Mutu-3 cells assessed as decrease in CDK9 association in -40 cp region at 50 nM incubated for 48 hrs by CHIP analysis
For experiment [10] the target is unchanged. This is another data set of the same source.
Description: Inhibition of BRD4 in human Mutu-3 cells assessed as decrease in Cp-initiated LMP1 transcription at 50 nM incubated for 48 hrs by Q-PCR analysis relative to control
Experiment [11] shares this target. The source holds these as a separate data set.
Description: Inhibition of BRD4 in human Mutu-3 cells assessed as decrease in Cyclin T1 association in -40 cp region at 50 nM incubated for 48 hrs by CHIP analysis
For experiment [12] the target is unchanged. This is another data set of the same source.
Description: Inhibition of BRD4 in human Mutu-3 cells assessed as decrease in Brd4 association in +295 cp region at 50 nM incubated for 48 hrs by CHIP analysis
The target is the same in experiment [13]. This is another data set of the same source.
Description: Inhibition of BRD4 in human Mutu-3 cells assessed as decrease in Cp-initiated EBNA 2 transcription at 50 nM incubated for 48 hrs by Q-PCR analysis relative to control
Experiment [14] shares this target. The source holds these as a separate data set.
Description: Inhibition of BRD4 in human Mutu-3 cells assessed as decrease in Cp-initiated EBNA 1 transcription at 50 nM incubated for 48 hrs by Q-PCR analysis relative to control
Experiment [15] shares this target. This is another data set of the same source.
Description: Inhibition of BRD4 in human Mutu-3 cells assessed as decrease in Cyclin T1 association in +295 cp region at 50 nM incubated for 48 hrs by CHIP analysis

Consider one molecule from ChEMBL document CHEMBL5712883, “RNA polymerase II stalling promotes nucleosome occlusion and pTEFb recruitment to drive immortalization by Epstein-Barr virus” (PLoS Pathog, 2011).

The source made the active and inactive calls. The rule behind the calls is not given here.

What is called inhibition is the share of the control response that was lost under treatment. Take `Cc1sc2c(c1C)C(c1ccc(Cl)cc1)=N[C@@H](CC(=O)OC(C)(C)C)c1nnc(C)n1-2`: the inhibition entry in [1], in experiment [2], in [3], in experiment [4], in experiment [5] and in [6] was “Active” throughout. For the same molecule, the inhibition entry in [7], in [8], in experiment [9], in experiment [11], in experiment [12] and in experiment [15] was “Active” throughout. In addition, in experiment [10], the inhibition entry is “inactive”. Also, the inhibition in experiment [13] came out at 74%; in experiment [14], 65%.
